Experiment: gradient 5% acetonitrile 3 min, to 50% in 2 min, to 85% in 15 min, held 3 min, 100 µL/min
Conditions: column: Zorbax Extend-C18 2.1 x 50 mm; eluents: water / acetonitrile, 0.1% formic acid
Method in brief: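 Retention time was recorded from adduct peaks, which were picked computationally and each inspected manually. Pure standards ran in mixtures of ~100 molecules on HPLC coupled to a quadrupole time-of-flight mass spectrometer, in positive and negative ionization mode, through a Zorbax Extend-C18 column (2.1 × 50 mm, 1.8 μm) at 100 μL/min. Eluents were water and acetonitrile, each with 0.1% formic acid.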

Row | SMILES | RP-LC retention time [s]
1 | COC(=O)c1c(C)[nH]c(C(=O)N2CCC(CC(=O)NCCc3c[nH]c4ccc(Cl)cc34)CC2)c1C | 785
2 | CN1C(=O)c2cc(C(=O)NCCc3ccccc3)nn2CC1(C)C(=O)NC1CCCC1 (stereo not given) | 761
3 | CN1C(=O)c2cc(C(=O)NCc3ccccc3F)nn2CC1(C)C(=O)NC1CCCCC1 (stereo not given) | 785
4 | O=C1NCCCCCCN(Cc2ccncc2)[C@@H]2CN(C3CCC3)CC[C@H]12 | 559
5 | Cc1c(-c2nnc(C(=O)NCCN(C)C)o2)oc2c(C)cccc12 | 651
6 | CCc1ccc(-c2cc3c(=O)n(Cc4noc(CN5CCCCC5CC)n4)ccn3n2)cc1 (stereo not given) | 778
7 | CC(=O)N1CCC(C(=O)Nc2nccs2)CC1 | 584
8 | Cc1cnc(C2CN(C3CCCCCC3)C2)n1Cc1cccnc1 | 608
9 | CSc1cccc(NC(=O)c2cnc(-c3ccc(C)cc3)nc2-c2ccncc2)c1 | 1010
10 | Cc1ccc(-c2nc3cnccn3c2NCCC(=O)NC2CCCC2)cc1 | 696
11 | Cc1ccc(NC(=O)CN2CCc3[nH]c4c(C)c(C)ccc4c(=O)c3C2)cc1 | 626
12 | Cc1csc(-c2ccc(N3CCN(C(=O)c4ccoc4)CC3)nc2)n1 | 716
13 | CN1CCC(NC(=O)C2CCc3sc(C(=O)N4CCCCC4)cc3C2)CC1 (stereo not given) | 587
14 | COc1ccc2[nH]cc(CCNC(=O)Cn3nc4c(cc3=O)CCCC4)c2c1 | 714
15 | CN1C(=O)c2cc(C(=O)NCCc3c[nH]c4ccccc34)nn2CC1(C)C(=O)NC1CCCCC1 (stereo not given) | 806
16 | Cc1cccc(Cn2nc3n(Cc4ccc(F)cc4)c(=O)c4nn(C)cc4n3c2=O)c1 | 940
17 | CC(C)CC(C(=O)N1CCN(c2ccccn2)CC1)N1Cc2ccccc2C1=O (stereo not given) | 650
18 | Cc1ccc(S(=O)(=O)NCC(c2cccnc2)c2cn(C)c3ccccc23)cc1C (stereo not given) | 790
19 | CN1C(=O)c2cc(C(=O)NC3CCCCC3)nn2CC1(C)C(=O)NCc1ccccc1 (stereo not given) | 758
20 | N#Cc1ccc(C(=O)N2CCCCC2c2nncn2CC2CC2)cc1 (stereo not given) | 677
21 | O=C(Nc1ccc(Br)cc1F)C1CCCN(c2cc(-n3cccn3)ncn2)C1 (stereo not given) | 967
22 | Cc1ccc(S(=O)(=O)N2C(=O)CCC2C(=O)NC2CCCC2)cc1C (stereo not given) | 855

Row | SMILES | RP-LC retention time [s]
23 | CCNC(=O)NC1CCN(c2nc3cccnc3n(Cc3ccc(C)cc3)c2=O)CC1 | 1010
24 | Cc1nc2cccnc2n1C1CCN(C(=O)Nc2ccc(Br)cc2F)CC1 | 671
25 | Cc1cc(NC(=O)c2cc3c(=O)n(CC(C)C)ccc3n2C)ccc1Br | 1030
26 | Cc1ccc(NC(=O)Cn2nc3nc(N4CCSCC4)ccn3c2=O)cc1C | 754
27 | CC(C)Cn1c(=O)c(-c2ccc(C(=O)N3CCC4(CC3)OCCO4)cc2)nc2ccccc21 | 987
28 | CCn1c(=O)sc2cc(S(=O)(=O)N3CCC(C(=O)Nc4ccc(C)c(Cl)c4)CC3)ccc21 | 905
29 | COc1cccc(S(=O)(=O)N2CCC([C@H]3[C@@H](OC)C(=O)N3C(C)C)CC2)c1 | 868
30 | Cc1noc(C2(NC(=O)C3COc4ccccc4O3)CCCCC2)n1 (stereo not given) | 920
31 | CCc1ccc(CNC(=O)Cn2c(CC)nc3c(c2=O)CN(Cc2ccccc2)CC3)cc1 | 707
32 | CCc1c(C)nc2nc(-c3ccco3)nn2c1N1CCN(c2ccccn2)CC1 | 616
33 | CCCCC(=O)NC1(C(F)(F)F)C(=O)N(Cc2ccccc2)C(C)=C1C(=O)OC (stereo not given) | 989
34 | Cc1sc(NC(=O)c2ccc(S(=O)(=O)N(C)C)cc2)nc1-c1ccc2c(c1)NC(=O)CO2 | 842
35 | CCC(CO)NCC(O)COCc1ccc(Cl)cc1 (stereo not given) | 552
36 | O=C(Nc1ccc2nc3n(c(=O)c2c1)CCC3)Nc1ccccc1Br | 726
37 | Cc1nc(-c2cnccn2)n(CC(=O)Nc2cccc(C(C)C)c2)c(=O)c1C | 855
38 | Cn1cc(-c2noc(-c3cccs3)n2)ccc1=O | 778
39 | CS(=O)(=O)N1CCC(C(=O)N2CCC(Oc3nc4ccc(F)cc4s3)CC2)CC1 | 779
40 | Cc1ccc(C)c(N2CCN(C(=O)Cn3ccc4ccc(N5CCOCC5)nc43)CC2)c1 | 1110
41 | COc1cc(-c2nc3sc4c(c3c(=O)o2)CCC4)cc(OC)c1OC | 1090
42 | O=C(Nc1ccc(F)cc1F)[C@@H]1OCC(=O)N(C2CC2)[C@H]1c1ccccc1 | 785
43 | O=C(NC1CC1)[C@@H]1C[C@H](Oc2ccccc2)CN1C(=O)C1CC=CC1 | 755
44 | CC1Oc2ccccc2N(Cc2nc(-c3ccc(Br)cc3)no2)C1=O (stereo not given) | 1180

Row | SMILES | RP-LC retention time [s]
45 | O=C(NCCCN1CCCCC1)c1csc(-c2ccc(N3CCCC3)nc2)n1 | 562
46 | Cc1nnc(-c2ccc3ccn(CC(=O)NCc4cccs4)c3c2)o1 | 729
47 | CC(C)n1cnnc1CC1CCN(S(=O)(=O)Cc2ccccc2)C1 (stereo not given) | 659
48 | CC(C)(C)C(=O)Nc1nnc(SCc2nnc(-c3ccc4c(c3)OCO4)o2)s1 | 843
49 | CC(=O)N1CCc2ccc(NC(=O)c3cccc(Br)c3)cc21 | 774
50 | Cc1ccc(C(=O)Nc2ccc3ncnc(N4CCCCC4)c3c2)s1 | 701
51 | CCc1ccc(NS(=O)(=O)c2cc(-c3c(CC)noc3NC(C)=O)ccc2OC)cc1 | 802
52 | CCC(C)NC(=O)C1CC(=O)N(c2ccc3c(c2)CCN3C(C)=O)C1 (stereo not given) | 630
53 | C=CCN1CCN(c2ccc3nnc(CCc4nc(-c5ccc(F)cc5)no4)n3n2)CC1 | 622
54 | O=C(Cn1ncc2c(N3CCN(c4ccccn4)CC3)ncnc21)Nc1ccc(F)cc1Cl | 650
55 | Cc1ccc(C)c(N2C(=O)CN(S(C)(=O)=O)CC2(C)C(=O)NCc2ccccc2)c1 (stereo not given) | 809
56 | COCC(C)(O)CNC(=O)COc1ccccc1OC (stereo not given) | 608
57 | CCN1c2ccccc2C(=O)NC12CCN(C(=O)Nc1ccccc1F)CC2 | 748
58 | Cc1ccc(NC(=O)C2CCCN(c3nnc(C)c4c(C)n(-c5ccccc5)nc34)C2)cc1C (stereo not given) | 820
59 | CCCn1c(=O)c(C)nc2cc(-c3noc(Cc4cccc(F)c4)n3)ccc21 | 1090
60 | CCOC(=O)c1c(C)c(C(=O)Nc2cccc(C)c2C)c(C)n1C | 882
61 | O=C(Cc1c(F)cccc1Cl)Nc1nnc(C2CC(=O)N(c3ccccc3)C2)o1 (stereo not given) | 691
62 | Cc1noc(-c2ccc(-n3ncc(C(=O)NCCC(C)C)c3C)nc2)n1 | 943
63 | C[C@]12CCC(=O)C(=O)C1CC[C@@H]1[C@@H]2CC[C@]2(C)C(=O)CC[C@@H]12 (stereo not given in full) | 1030
64 | O=C(Cc1ccc(Cl)cc1)N1CCC2(C1)C(=O)Nc1ccccc12 (stereo not given) | 758
65 | Cc1ccc(C)c(NC(=O)C2CCN(S(=O)(=O)c3c(C)[nH]c(C)c3C(=O)N3CCCC3)CC2)c1 | 726

Reference: the METLIN SMRT retention time set (Domingo-Almenara et al. 2019)
